Measured values from the NIST ThermoML archive (doi:10.1021/je060271a).
Where “and” joins values, the source holds several entries; their conditions need not be identical. Equal entries are not always repeated.

Conditions: 283.15 K, Liquid, Vibrating tube method

CCCCCC(=O)OCC(COC(=O)CCCCC)(COC(=O)CCCCC)COC(=O)CCCCC [pentaerythritol tetrahexanoate]
Conditions	mass density
6771 kPa	1008.1 kg/m3
6771.2 kPa	1008 kg/m3
6771.4 kPa	1008.1 kg/m3 and 1008 kg/m3
6771.6 kPa	1008.1 kg/m3
6771.7 kPa	1008.1 kg/m3
6771.9 kPa	1008 kg/m3
6772.1 kPa	1008.1 kg/m3
6772.3 kPa	1008.1 kg/m3
6772.4 kPa	1008 kg/m3 and 1008.1 kg/m3 and 1008.2 kg/m3
6772.6 kPa	1008.1 kg/m3 and 1008 kg/m3
6772.8 kPa	1008.1 kg/m3 and 1007.9 kg/m3
6772.9 kPa	1008.1 kg/m3
6773.1 kPa	1008 kg/m3 and 1008.2 kg/m3
6773.3 kPa	1008 kg/m3 and 1008.2 kg/m3
6773.5 kPa	1008 kg/m3 and 1008.1 kg/m3
6773.6 kPa	1008.1 kg/m3 and 1008.2 kg/m3 and 1008 kg/m3
6773.7 kPa	1008 kg/m3
6773.8 kPa	1008.1 kg/m3 and 1008 kg/m3
6774.1 kPa	1008.1 kg/m3
6774.2 kPa	1008.1 kg/m3
6774.3 kPa	1008.1 kg/m3
6774.5 kPa	1008.2 kg/m3 and 1008 kg/m3 and 1008.1 kg/m3
6774.7 kPa	1008.1 kg/m3 and 1008.2 kg/m3 and 1008 kg/m3
6774.8 kPa	1007.9 kg/m3 and 1008.1 kg/m3 and 1008 kg/m3
6775 kPa	1008.1 kg/m3 and 1007.9 kg/m3
6775.1 kPa	1008.2 kg/m3 and 1008.1 kg/m3
6775.2 kPa	1008.1 kg/m3 and 1008.2 kg/m3
6775.4 kPa	1008.2 kg/m3 and 1008 kg/m3
6776.1 kPa	1008.1 kg/m3
6776.2 kPa	1008.1 kg/m3
6776.6 kPa	1008.2 kg/m3 and 1008.1 kg/m3
6776.8 kPa	1008.1 kg/m3 and 1008.2 kg/m3 and 1008 kg/m3
6776.9 kPa	1008.2 kg/m3 and 1008.1 kg/m3
6777.1 kPa	1008.1 kg/m3
6777.3 kPa	1008.1 kg/m3
6777.5 kPa	1008.1 kg/m3 and 1008 kg/m3
6777.6 kPa	1008.1 kg/m3 and 1008 kg/m3
6777.8 kPa	1008.1 kg/m3 and 1008.2 kg/m3 and 1008 kg/m3
6778 kPa	1008.2 kg/m3
6778.1 kPa	1008 kg/m3 and 1008.1 kg/m3 and 1008.2 kg/m3
6778.3 kPa	1008.1 kg/m3 and 1008.2 kg/m3
6778.5 kPa	1008.1 kg/m3 and 1008 kg/m3 and 1007.9 kg/m3
6778.7 kPa	1008 kg/m3 and 1008.1 kg/m3
6779 kPa	1008.1 kg/m3
6779.2 kPa	1008 kg/m3 and 1008.1 kg/m3
6779.3 kPa	1008.2 kg/m3
6779.5 kPa	1008 kg/m3 and 1008.1 kg/m3
6779.7 kPa	1008.1 kg/m3 and 1008.2 kg/m3
6779.8 kPa	1008.2 kg/m3
6779.9 kPa	1008 kg/m3 and 1008.1 kg/m3
6780 kPa	1008.1 kg/m3 [middle of 4 runs]
6780.2 kPa	1008.1 kg/m3 and 1008 kg/m3
6780.3 kPa	1008 kg/m3
6780.4 kPa	1008 kg/m3 and 1008.2 kg/m3 and 1008.1 kg/m3
6780.5 kPa	1008.1 kg/m3 and 1008 kg/m3
6780.6 kPa	1008.1 kg/m3
6780.7 kPa	1008 kg/m3 and 1008.2 kg/m3 and 1008.1 kg/m3
6780.8 kPa	1008.2 kg/m3 and 1008.1 kg/m3
6780.9 kPa	1008.1 kg/m3
6781 kPa	1008.1 kg/m3 and 1008 kg/m3 and 1008.2 kg/m3
6781.1 kPa	1008.1 kg/m3
6781.2 kPa	1008.1 kg/m3
6781.3 kPa	1008.1 kg/m3
6781.4 kPa	1008.1 kg/m3
6781.5 kPa	1008.1 kg/m3
6781.7 kPa	1007.9 kg/m3
6781.9 kPa	1008.1 kg/m3 and 1008 kg/m3
6782 kPa	1008.2 kg/m3
6782.2 kPa	1008.2 kg/m3 and 1008.1 kg/m3 and 1008 kg/m3
6782.4 kPa	1007.9 kg/m3 and 1008.2 kg/m3 and 1008.1 kg/m3
6782.6 kPa	1008.1 kg/m3 and 1008 kg/m3
6782.7 kPa	1008.2 kg/m3 and 1008.1 kg/m3 and 1008 kg/m3
6782.9 kPa	1008.1 kg/m3 and 1008 kg/m3
6783.1 kPa	1007.9 kg/m3 and 1008.1 kg/m3 and 1008 kg/m3
6783.2 kPa	1008 kg/m3
6783.3 kPa	1008.1 kg/m3 and 1008 kg/m3
6783.4 kPa	1008.1 kg/m3 [middle of 4 runs]
6783.6 kPa	1008 kg/m3 and 1008.1 kg/m3 and 1008.2 kg/m3
6783.8 kPa	1008.1 kg/m3
6784.1 kPa	1008 kg/m3
6784.3 kPa	1008.1 kg/m3
6784.5 kPa	1008 kg/m3
6784.6 kPa	1008.1 kg/m3
6784.7 kPa	1008 kg/m3 and 1008.1 kg/m3
6784.8 kPa	1008.1 kg/m3
6785 kPa	1008.1 kg/m3 and 1008.2 kg/m3
6785.1 kPa	1008.1 kg/m3 and 1008 kg/m3
6785.2 kPa	1008.2 kg/m3 and 1008.1 kg/m3
6785.3 kPa	1008.1 kg/m3 and 1008 kg/m3
6785.5 kPa	1007.9 kg/m3
6785.7 kPa	1008 kg/m3 and 1008.2 kg/m3 and 1008.1 kg/m3
6785.8 kPa	1008.1 kg/m3 and 1008 kg/m3 and 1008.2 kg/m3
6786 kPa	1008.1 kg/m3 and 1008 kg/m3
6786.2 kPa	1008.1 kg/m3 and 1008.2 kg/m3
6786.3 kPa	1008.1 kg/m3
6786.4 kPa	1008.1 kg/m3
6786.5 kPa	1008 kg/m3 and 1008.2 kg/m3 and 1008.1 kg/m3
6786.7 kPa	1008 kg/m3 and 1008.1 kg/m3
6786.9 kPa	1008 kg/m3 and 1008.1 kg/m3
6787 kPa	1008 kg/m3
6787.2 kPa	1008.1 kg/m3 and 1008 kg/m3
6787.4 kPa	1008 kg/m3 and 1008.2 kg/m3 and 1008.1 kg/m3
6787.7 kPa	1008.1 kg/m3
6787.9 kPa	1008 kg/m3 and 1008.1 kg/m3
6788.1 kPa	1008.2 kg/m3 and 1008.1 kg/m3
6788.2 kPa	1008 kg/m3 and 1008.1 kg/m3
6788.4 kPa	1008.1 kg/m3
6789.1 kPa	1008.2 kg/m3
6789.2 kPa	1008 kg/m3
6789.4 kPa	1008 kg/m3
6789.5 kPa	1008 kg/m3 and 1008.2 kg/m3 and 1008.1 kg/m3
6789.6 kPa	1008.2 kg/m3 and 1008.1 kg/m3 and 1008 kg/m3
6789.7 kPa	1008.1 kg/m3 and 1008 kg/m3
6789.8 kPa	1008 kg/m3 and 1008.1 kg/m3 and 1008.2 kg/m3
6789.9 kPa	1008 kg/m3
6795.1 kPa	1008.1 kg/m3
6804.6 kPa	1008.1 kg/m3
6816.7 kPa	1008 kg/m3
6826.4 kPa	1008 kg/m3
6835.7 kPa	1008.2 kg/m3
6845.5 kPa	1008.1 kg/m3
6856.1 kPa	1008.3 kg/m3
6867.3 kPa	1008.1 kg/m3
6879.6 kPa	1008.1 kg/m3
6889.1 kPa	1008.1 kg/m3
6899.3 kPa	1008.1 kg/m3
6909.5 kPa	1008.1 kg/m3
6921.6 kPa	1008.2 kg/m3
6931.7 kPa	1008.2 kg/m3
6941.9 kPa	1008.1 kg/m3
6954.2 kPa	1008.3 kg/m3
6964.7 kPa	1008.2 kg/m3
6975.4 kPa	1008.1 kg/m3
6988.1 kPa	1008.1 kg/m3
6998.9 kPa	1008.2 kg/m3
7009.8 kPa	1008.1 kg/m3
7020.4 kPa	1008.2 kg/m3
7033.3 kPa	1008.2 kg/m3
7043.8 kPa	1008.3 kg/m3
7054.9 kPa	1008.2 kg/m3
7065.4 kPa	1008.3 kg/m3
7078.4 kPa	1008.2 kg/m3
7089.3 kPa	1008.3 kg/m3
7100.3 kPa	1008.3 kg/m3
7113.3 kPa	1008.3 kg/m3
